Measured values reported in patent US9000186B2, “Ring-fused heterocyclic derivative” (Kyowa Hakko Kirin Co., Ltd., priority 2011, dated 2015).
Where two headings read alike, the source gives them in different places.

How the values were obtained:
[1] = biological target: T1, human Cav3.2 T-type Ca2+ channel (Homo sapiens, UniProt O95180); test: Inhibitory effect for intracellular calcium response via Cav3.2 T-type Ca2+ channels (FLIPR Calcium 3 Assay Kit); format: cell-based
T1 construct: expressed in transfected cells; host or cells: KJMGER8 cells (Namalwa cell-derived cell line)

[2] = tested on: morphine-induced pruritus mice; test: Inhibitory effect for pruritus in morphine-induced pruritus mice; format: in vivo, male ddY mice; conditions: oral, dose of 30 mg/kg or less, 30 minutes before intrathecal morphine (1 nmol/5 μL); scratching counted for 30 minutes
Procedure: Morphine (1 nmol/5 μL, dissolved in physiological saline) or physiological saline was intrathecally administered between the fifth and sixth lumbar vertebrae of male ddY mice using a microsyringe fitted with a 30-gauge injection needle. Mice administered with only morphine were used as a control group, and mice administered with only physiological saline as a physiological saline-administered group.
After the morphine administration, the number of scratching behavior with the hind legs which observed immediately in the mice was measured for 30 minutes. Because mice show a rapid, continuous scratching behavior in each scratching behavior, a series of such behavior was counted as a single scratching behavior.
The test compounds were administered 30 minutes before the morphine administration. Each test compound was suspended in a 0.5% methylcellulose solution, and orally administered in 10 mL/kg volume.

[3] = human Cav3.2-expressing KJMGER8 cells (Namalwa-derived), calcium response induced by 5 mmol/L CaCl2, normalised to 3 μmol/L mibefradil, read-out: IC50 for the human Cav3.2 T-type Ca2+ current

T1 sequence (O95180 whole entry): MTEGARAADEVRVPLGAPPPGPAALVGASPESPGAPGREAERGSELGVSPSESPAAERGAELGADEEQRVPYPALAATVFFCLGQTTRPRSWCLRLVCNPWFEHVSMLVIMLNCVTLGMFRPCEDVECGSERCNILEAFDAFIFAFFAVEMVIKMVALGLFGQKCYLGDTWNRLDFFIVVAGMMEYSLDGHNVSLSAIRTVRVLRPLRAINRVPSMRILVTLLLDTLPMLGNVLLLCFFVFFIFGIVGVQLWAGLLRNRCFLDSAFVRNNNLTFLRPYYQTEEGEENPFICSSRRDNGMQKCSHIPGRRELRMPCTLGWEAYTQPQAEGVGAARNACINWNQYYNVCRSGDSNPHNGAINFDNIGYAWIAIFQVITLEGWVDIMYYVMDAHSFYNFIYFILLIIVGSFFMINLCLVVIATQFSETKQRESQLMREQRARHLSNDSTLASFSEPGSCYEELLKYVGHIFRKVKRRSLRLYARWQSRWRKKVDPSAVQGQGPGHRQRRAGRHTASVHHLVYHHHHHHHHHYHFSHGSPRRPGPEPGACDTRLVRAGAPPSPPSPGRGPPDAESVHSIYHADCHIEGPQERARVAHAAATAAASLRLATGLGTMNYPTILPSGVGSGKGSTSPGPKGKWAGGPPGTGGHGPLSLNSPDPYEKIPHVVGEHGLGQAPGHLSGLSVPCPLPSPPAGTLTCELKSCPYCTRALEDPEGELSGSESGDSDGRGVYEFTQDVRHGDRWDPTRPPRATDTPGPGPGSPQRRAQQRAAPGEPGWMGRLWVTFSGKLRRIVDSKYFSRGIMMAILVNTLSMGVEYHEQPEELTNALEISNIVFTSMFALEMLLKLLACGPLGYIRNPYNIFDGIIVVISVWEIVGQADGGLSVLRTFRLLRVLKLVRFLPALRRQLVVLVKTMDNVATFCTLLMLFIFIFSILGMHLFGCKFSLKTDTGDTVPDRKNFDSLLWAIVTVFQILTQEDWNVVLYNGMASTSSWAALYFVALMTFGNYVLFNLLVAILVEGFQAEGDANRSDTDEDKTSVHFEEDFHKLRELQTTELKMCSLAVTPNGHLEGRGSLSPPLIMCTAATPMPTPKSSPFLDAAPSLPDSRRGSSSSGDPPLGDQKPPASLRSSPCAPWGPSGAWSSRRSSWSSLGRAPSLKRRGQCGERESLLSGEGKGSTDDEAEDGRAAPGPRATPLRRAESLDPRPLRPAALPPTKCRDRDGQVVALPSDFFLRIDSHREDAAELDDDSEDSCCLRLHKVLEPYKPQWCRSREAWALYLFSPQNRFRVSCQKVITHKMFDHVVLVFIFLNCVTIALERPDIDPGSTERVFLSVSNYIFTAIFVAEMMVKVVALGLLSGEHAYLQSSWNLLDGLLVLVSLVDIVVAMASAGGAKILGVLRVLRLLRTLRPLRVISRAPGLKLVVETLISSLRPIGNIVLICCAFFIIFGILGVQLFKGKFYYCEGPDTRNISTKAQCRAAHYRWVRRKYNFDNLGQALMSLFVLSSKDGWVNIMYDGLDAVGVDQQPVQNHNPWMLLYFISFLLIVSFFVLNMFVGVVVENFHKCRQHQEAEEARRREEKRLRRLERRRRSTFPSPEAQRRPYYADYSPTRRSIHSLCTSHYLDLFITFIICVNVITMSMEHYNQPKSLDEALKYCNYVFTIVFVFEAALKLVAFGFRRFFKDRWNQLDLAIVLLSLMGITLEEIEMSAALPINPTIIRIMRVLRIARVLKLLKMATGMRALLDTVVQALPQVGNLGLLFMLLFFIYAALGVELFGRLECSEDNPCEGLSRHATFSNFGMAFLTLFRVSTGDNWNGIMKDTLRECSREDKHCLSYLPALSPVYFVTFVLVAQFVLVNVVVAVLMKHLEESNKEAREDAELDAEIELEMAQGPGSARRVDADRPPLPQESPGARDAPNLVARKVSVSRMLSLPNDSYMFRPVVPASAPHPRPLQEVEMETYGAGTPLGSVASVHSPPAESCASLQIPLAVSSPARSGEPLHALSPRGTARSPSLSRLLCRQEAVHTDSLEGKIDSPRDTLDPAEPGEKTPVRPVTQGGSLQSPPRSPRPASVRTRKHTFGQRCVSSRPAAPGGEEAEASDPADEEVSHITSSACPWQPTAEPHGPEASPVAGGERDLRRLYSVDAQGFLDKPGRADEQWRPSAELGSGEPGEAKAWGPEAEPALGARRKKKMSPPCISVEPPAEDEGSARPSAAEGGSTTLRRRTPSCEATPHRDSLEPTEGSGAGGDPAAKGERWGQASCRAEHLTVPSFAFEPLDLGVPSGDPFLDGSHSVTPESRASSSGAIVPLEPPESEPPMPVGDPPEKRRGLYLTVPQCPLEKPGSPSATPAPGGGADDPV

## Cc1cc(C(=O)NC2CCC(F)(F)CC2)cc2nc(C(F)(F)F)c(CC3CCC(F)(F)CC3)n12 [Compound 72, N-(4,4-Difluorocyclohexyl)-3-(4,4-difluorocyclohexylmethyl)-5-methyl-2-trifluoromethylimidazo[1,2-a]pyridine-7-carboxamide]
[1]
  IC50: < 100 nM
[2]
  increase of the scratching behavior observed in the morphine-induced pruritus mice: inhibited

## CC(C)c1nc2cc(C(=O)Nc3ccncc3)ccn2c1S(=O)(=O)C1CCCCC1 [Compound 38, 3-Cyclohexylsulfonyl-2-isopropyl-N-(pyridin-4-yl)imidazo[1,2-a]pyridine-7-carboxamide]
[1]
  IC50: < 100 nM
[2]
  increase of the scratching behavior observed in the morphine-induced pruritus mice: inhibited

## CC(C)c1nc2cc(C(=O)Nc3ccccc3)ccn2c1S(=O)(=O)N1CC(F)(F)C1 [Compound 133, 3-(3,3-Difluoroazetidin-1-ylsulfonyl)-2-isopropyl-N-phenylimidazo[1,2-a]pyridine-7-carboxamide]
[1]; [3]
  IC50: < 100 nM
[2]
  increase of the scratching behavior observed in the morphine-induced pruritus mice: inhibited

## O=C(NC1CCOCC1)c1cc2nc(C3(C(F)(F)F)CC3)c(CC3CCC(F)(F)CC3)n2cc1Cl [Compound 110, 6-Chloro-3-(4,4-difluorocyclohexylmethyl)-N-(tetrahydro-2H-pyran-4-yl)-2-{1-(trifluoromethyl)cyclopropyl}imidazo[1,2-a]pyridine-7-carboxamide]
[1]
  IC50: < 100 nM
[2]
  increase of the scratching behavior observed in the morphine-induced pruritus mice: inhibited

## CC(F)(F)c1nc2cc(C(=O)NC3CCOCC3)c(Cl)cn2c1CC1CCC(F)(F)CC1 [Compound 109, 6-Chloro-3-(4,4-difluorocyclohexylmethyl)-2-(1,1-difluoroethyl)-N-(tetrahydro-2H-pyran-4-yl)imidazo[1,2-a]pyridine-7-carboxamide]
[1]
  IC50: < 100 nM
[2]
  increase of the scratching behavior observed in the morphine-induced pruritus mice: inhibited

## O=C(NC1CCOCC1)c1cc(Cl)n2c(CC3CCC(F)(F)CC3)c(C(F)(F)F)nc2c1 [Compound 104, 5-Chloro-3-(4,4-difluorocyclohexylmethyl)-N-(tetrahydro-2H-pyran-4-yl)-2-trifluoromethylimidazo[1,2-a]pyridine-7-carboxamide]
[1]
  IC50: < 100 nM
[2]
  increase of the scratching behavior observed in the morphine-induced pruritus mice: inhibited

## Cc1cc(C(=O)NCC2CCOCC2)cc2nc(C(F)(F)F)c(CC3CCC(F)(F)CC3)n12 [Compound 81, 3-(4,4-Difluorocyclohexylmethyl)-5-methyl-N-{(tetrahydro-2H-pyran-4-yl)methyl}-2-trifluoromethylimidazo[1,2-a]pyridine-7-carboxamide]
[1]
  IC50: < 100 nM
[2]
  increase of the scratching behavior observed in the morphine-induced pruritus mice: inhibited

## CC(C)c1nc2cc(C(=O)Nc3ccccc3)ccn2c1S(=O)(=O)C1CCCCC1 [Compound 41, 3-Cyclohexylsulfonyl-2-isopropyl-N-phenylimidazo[1,2-a]pyridine-7-carboxamide]
[1]
  IC50: < 100 nM
[2]
  increase of the scratching behavior observed in the morphine-induced pruritus mice: inhibited

## CC1CCCN(C(=O)c2ccn3c(CC4CCCCC4)c(C(C)(C)C)nc3c2)C1 (centres unmarked) [Compound 14, (2-tert-Butyl-3-cyclohexylmethylimidazo[1,2-a]pyridin-7-yl)(3-methylpiperidin-1-yl)methanone]
[1]
  IC50: < 100 nM
[2]
  increase of the scratching behavior observed in the morphine-induced pruritus mice: inhibited

## Cc1cc(NC(=O)c2cc3nc(C(C)C)c(S(=O)(=O)N4CC(F)(F)C4)n3cc2Cl)on1 [Compound 148, 6-Chloro-3-(3,3-difluoroazetidin-1-ylsulfonyl)-2-isopropyl-N-(3-methylisooxazol-5-yl)imidazo[1,2-a]pyridine-7-carboxamide]
[1]; [3]
  IC50: < 100 nM
[2]
  increase of the scratching behavior observed in the morphine-induced pruritus mice: inhibited

## O=C(NC1CC(F)(F)C1)c1ccn2c(CC3CCC(F)(F)CC3)c(C(F)(F)F)nc2c1 [Compound 51, N-(3,3-Difluorocyclobutyl)-3-(4,4-difluorocyclohexylmethyl)-2-trifluoromethylimidazo[1,2-a]pyridine-7-carboxamide]
[1]
  IC50: < 100 nM
[2]
  increase of the scratching behavior observed in the morphine-induced pruritus mice: inhibited

## CC1(c2nc3cc(C(=O)NC4CCOCC4)c(Cl)cn3c2CC2CCC(F)(F)CC2)CC1 [Compound 114, 6-Chloro-3-(4,4-difluorocyclohexylmethyl)-2-(1-methylcyclopropyl)-N-(tetrahydro-2H-pyran-4-yl)imidazo[1,2-a]pyridine-7-carboxamide]
[1]; [3]
  IC50: < 100 nM
[2]
  increase of the scratching behavior observed in the morphine-induced pruritus mice: inhibited

## O=C(N[C@H]1CC[C@H](O)CC1)c1cc(Cl)n2c(CC3CCC(F)(F)CC3)c(C(F)(F)F)nc2c1 [Compound 103, 5-Chloro-3-(4,4-difluorocyclohexylmethyl)-N-(trans-4-hydroxycyclohexyl)-2-trifluoromethylimidazo[1,2-a]pyridine-7-carboxamide]
[1]
  IC50: < 100 nM
[2]
  increase of the scratching behavior observed in the morphine-induced pruritus mice: inhibited

## Cc1cc(C(=O)NC2CCOCC2)cc2nc(C(C)(F)F)c(CC3CCC(F)(F)CC3)n12 [Compound 96, 3-(4,4-Difluorocyclohexylmethyl)-2-(1,1-difluoroethyl)-5-methyl-N-(tetrahydro-2H-pyran-4-yl)imidazo[1,2-a]pyridine-7-carboxamide]
[1]
  IC50: < 100 nM
[2]
  increase of the scratching behavior observed in the morphine-induced pruritus mice: inhibited

## CC(C)c1nc2cc(C(=O)Nc3ccccc3)ccn2c1COC1CCCCC1 [Compound 21, 3-Cyclohexyloxymethyl-2-isopropyl-N-phenylimidazo[1,2-a]pyridine-7-carboxamide]
[1]; [3]
  IC50: < 100 nM
[2]
  increase of the scratching behavior observed in the morphine-induced pruritus mice: inhibited

## O=C(Nc1ccn2c(CC3CCC(F)(F)CC3)c(C(F)(F)F)nc2c1)c1ccccc1 [Compound 126, N-{3-(4,4-Difluorocyclohexylmethyl)-2-trifluoromethylimidazo[1,2-a]pyridin-7-yl}benzamide]
[1]
  IC50: < 100 nM
[2]
  increase of the scratching behavior observed in the morphine-induced pruritus mice: inhibited

## Cc1cc(C(=O)NC2CCOCC2)cc2nc(C(F)(F)F)c(CC3CCC(F)(F)CC3)n12 [Compound 44, 3-(4,4-Difluorocyclohexylmethyl)-5-methyl-N-(tetrahydro-2H-pyran-4-yl)-2-trifluoromethylimidazo[1,2-a]pyridine-7-carboxamide]
[2]
  increase of the scratching behavior observed in the morphine-induced pruritus mice: inhibited

## Cc1cn2c(CC3CCC(F)(F)CC3)c(C(F)(F)F)nc2cc1C(=O)NC1CCOCC1 [Compound 118, 3-(4,4-Difluorocyclohexylmethyl)-6-methyl-N-(tetrahydro-2H-pyran-4-yl)-2-trifluoromethylimidazo[1,2-a]pyridine-7-carboxamide]
[2]
  increase of the scratching behavior observed in the morphine-induced pruritus mice: inhibited

## O=C(Nc1ccncc1)c1ccn2c(CC3CCC(F)(F)CC3)c(C(F)(F)F)nc2c1 [Compound 36, 3-(4,4-Difluorocyclohexylmethyl)-N-(pyridin-4-yl)-2-trifluoromethylimidazo[1,2-a]pyridine-7-carboxamide]
[2]
  increase of the scratching behavior observed in the morphine-induced pruritus mice: inhibited

## Cc1cc(C(=O)NC2CCOC(C)(C)C2)cc2nc(C(F)(F)F)c(CC3CCC(F)(F)CC3)n12 (centres unmarked) [Compound 75, 3-(4,4-Difluorocyclohexylmethyl)-N-(2,2-dimethyltetrahydro-2H-pyran-4-yl)-5-methyl-2-trifluoromethylimidazo[1,2-a]pyridine-7-carboxamide]
[1]; [3]
  IC50: < 100 nM
[2]
  increase of the scratching behavior observed in the morphine-induced pruritus mice: inhibited

## CC(C)c1nc2cc(C(=O)NC3CCOCC3)c(Cl)cn2c1CC1CCC(F)(F)CC1 [Compound 111, 6-Chloro-3-(4,4-difluorocyclohexylmethyl)-2-isopropyl-N-(tetrahydro-2H-pyran-4-yl)imidazo[1,2-a]pyridine-7-carboxamide]
[1]
  IC50: < 100 nM
[2]
  increase of the scratching behavior observed in the morphine-induced pruritus mice: inhibited

## CC1(C)CC(NC(=O)c2ccn3c(CC4CCC(F)(F)CC4)c(C(F)(F)F)nc3c2)CCO1 (centres unmarked) [Compound 54, 3-(4,4-Difluorocyclohexylmethyl)-N-(2,2-dimethyltetrahydro-2H-pyran-4-yl)-2-trifluoromethylimidazo[1,2-a]pyridine-7-carboxamide]
[2]
  increase of the scratching behavior observed in the morphine-induced pruritus mice: inhibited

## Cc1cn2c(S(=O)(=O)NC(C)(C)C)c(C(C)C)nc2cc1C(=O)Nc1ccccc1 [Compound 168, 3-(N-tert-Butylsulfamoyl)-2-isopropyl-6-methyl-N-phenylimidazo[1,2-a]pyridine-7-carboxamide]
[1]
  IC50: < 100 nM

## CC(C)c1nc2cc(C(=O)NOCc3ccccc3)c(Cl)cn2c1S(=O)(=O)NC(C)(C)C [Compound 159, N-Benzyloxy-3-(N-tert-butylsulfamoyl)-6-chloro-2-isopropylimidazo[1,2-a]pyridine-7-carboxamide]
[1]; [3]
  IC50: < 100 nM

## Cc1cn2c(S(=O)(=O)N3CCC(F)(F)CC3)c(C(C)C)nc2cc1C(=O)Nc1ccncc1 [Compound 165, 3-(4,4-Difluoropiperidin-1-ylsulfonyl)-2-isopropyl-6-methyl-N-(pyridin-4-yl)imidazo[1,2-a]pyridine-7-carboxamide]
[1]; [3]
  IC50: < 100 nM

## CCN(CC)C(=O)c1ccn2c(SC3CCCCC3)c(C(C)C)nc2c1 [Compound 12, 3-Cyclohexylthio-N,N-diethyl-2-isopropylimidazo[1,2-a]pyridine-7-carboxamide]
[1]
  IC50: < 100 nM
